Consider 1 substance from PMC8495455, “Discovery of a transdermally deliverable pentapeptide for activating AdipoR1 to promote hair growth” (EMBO Molecular Medicine, 2021).

One test deals with PDGFA mRNA. The experiment in a line: qRT-PCR growth factor gene expression in DP cells, PDGFA. Type of test: cell-based, human. The conditions noted are these: for mRNA_PDGFA: DP cells. The source says: Next, we investigated the downstream effects of P5 on hair growth factor genes and proteins in DP cells. […] We tested whether P5 can also increase the mRNA levels and proteins of hair growth factors in DP cells: IGF‐1, VEGF, HGF, platelet‐derived growth factor alpha (PDGFA), and fibroblast growth factor (FGF) 7, which are known to induce or maintain the anagen phase of the hair cycle (Jindo et al, [1994]; Philpott et al, [1994]; Yano et al, [2001]; Jang, [2005]; Tomita et al, [2006]; Iino et al, [2007]).
Total RNA was isolated from P5‐treated DP cells using RNAiso Plus (#9109; TaKaRa). We used the total RNA (1 µg) for cDNA synthesis using a RevertAid First Strand cDNA Synthesis Kit (Thermo Fisher) according to the manufacturer's instructions. The mRNA expression levels were quantified on a 7500 Real‐time PCR System (Thermo Fisher) using TB Green Premix Ex Taq (TaKaRa Bio): human IGF‐1, VEGF, HGF, PDGFA, FGF7, and glyceraldehyde 3‐phosphate dehydrogenase (GAPDH) (Appendix Table S2). The relative expression levels of each gene were determined by the 2^‐ΔΔCT method.
On the technique in general: Real-time PCR tracks product formation cycle by cycle.

Another test concerns Adipoq−/− mice. The test can be described thus: Mouse hair cycle modulation, histology and anagen induction score, Adipoq−/− mice. Type of test: in vivo. The conditions noted are these: Unpaired t-test. The source says:
(§1) We also evaluated P5 effect in Adipoq ^−/− mouse (Ma et al, [2002]). […] Skin pigmentation was prominent in P5‐treated Adipoq ^−/− mice at day 14 (Fig 4E). […] At day 35, unlike vehicle‐treated Adipoq ^−/− mice showing little pigmentation, P5‐treated Adipoq ^−/− mice manifested hairs with pigmentation (Fig 4E). […] The DP cells in P5‐treated Adipoq ^−/− mice expressed versican (Fig 4G).
(§2) Paraffin‐embedded mouse cutaneous back tissue was sectioned (4 μm thickness) and stained with hematoxylin and eosin. […] IF intensity was observed and recorded with a Nikon Eclipse Ni‐E fluorescence microscope (Nikon).
(§3) For the hair cycle modulation experiment, Adipoq ^−/− (stock #008195; JAX) (Ma et al, [2002]), Adipor1 ^−/− (Yamauchi et al, [2007]; Okada‐Iwabu et al, [2013]), or C57BL/6 (KOATECH) female mice was used (Müller‐Röver et al, [2001]). […] The mouse hair growth score (a value from 0 to 100 based on the skin pigmentation and hair shaft density) was monitored and documented at designated days with the experimenters being blind to the conditions, following a previous study (Chai et al, [2019]). […] On day 35, we obtained dorsal cutaneous tissue for histological analysis: anagen induction scores (calculated using an assigned arbitrary score; telogen = 1, anagen I–VI = 2–7) (Müller‐Röver et al, [2001]).

Another test concerns Adipor1−/− mice. The experiment in a line: Mouse hair cycle modulation, histology and anagen induction score, Adipor1−/− mice. Type of test: in vivo.
From the text: To test whether the effect of P5 is mediated through AdipoR1 in vivo, we used Adipor1 ^−/− mice (Yamauchi et al, [2007]; Okada‐Iwabu et al, [2013]). […] Consistently, the anagen induction effects of P5 was abolished in the Adipor1 ^−/− mice (Fig 4I and J), in contrast to in WT mouse (Appendix Fig S2). […] Taken together, topical P5 treatment can accelerate hair growth through AdipoR1 in vivo.
as §2
For the hair cycle modulation experiment, Adipoq ^−/− (stock #008195; JAX) (Ma et al, [2002]), Adipor1 ^−/− (Yamauchi et al, [2007]; Okada‐Iwabu et al, [2013]), or C57BL/6 (KOATECH) female mice was used (Müller‐Röver et al, [2001]). […] The mouse hair growth score (a value from 0 to 100 based on the skin pigmentation and hair shaft density) was monitored and documented at designated days with the experimenters being blind to the conditions, following a previous study (Chai et al, [2019]). […] On day 35, we obtained dorsal cutaneous tissue for histological analysis: anagen induction scores (calculated using an assigned arbitrary score; telogen = 1, anagen I–VI = 2–7) (Müller‐Röver et al, [2001]). […]

A further test deals with human scalp HFs. The experiment in a line: Ex vivo human HF organ culture, hair shaft elongation. It is filed as cell-based. The conditions noted are these: 6 days, vs vehicle. Here is the method: We next investigated whether P5 can reproduce the effects of APN on hair growth promotion ex vivo (Won et al, [2012]) using ex vivo human HF organ culture model. […] The Ki‐67‐positive cell portion of the matrix area in the P5‐treated HFs was higher than that in the vehicle‐treated group (Fig 3E).
The microdissected full‐length scalp HFs in anagen VI were cut at the level of sebaceous duct and then ex vivo cultured for 6 days at 37°C in a 5% CO2 atmosphere in Williams E medium (#12551032, Gibco) supplemented with hydrocortisone (10 ng/ml), insulin (10 µg/ml), L‐glutamine (2 mM), and penicillin‐streptomycin solution (1×). To avoid any potential bias in the length measurement from pseudo‐catagen progression, the total length of pigmented hair shaft of each HF was measured every three days to calculate the net length of elongated hair shaft and photographed in culture day 6 using a stereomicroscope (Olympus).

The subject of test [1] is p-AMPK in HF cells of Adipoq−/− mice. The test can be described thus: IF p-AMPK in HF cells of Adipoq−/− mice after topical P5. It is filed as in vivo. The conditions noted are these: Adipoq−/− mouse, topical 0.1 mM P5.
From the text: as §1, §2, §3

For “GLYYF [P5, GST-fused (GST-P5) in pulldown assays]”, the mRNA_PDGFA in the test with PDGFA mRNA (P5 5μM, relative to Control = 1, replicate 1) is recorded as 1.237; in the test on PDGFA mRNA (P5 5μM, relative to Control = 1, replicate 2), 1.013; with PDGFA mRNA (P5 5μM, relative to Control = 1, replicate 3), 1.221; in the test with PDGFA mRNA (P5 5μM, relative to Control = 1, replicate 4), 1.252; in the test on PDGFA mRNA (P5 25μM, relative to Control = 1, replicate 1), 1.5777; with PDGFA mRNA (P5 25μM, relative to Control = 1, replicate 2), 1.8805. Also, the mRNA_PDGFA is 1.22 in the test with PDGFA mRNA (P5 25μM, relative to Control = 1, replicate 3) and 1.95 with PDGFA mRNA (P5 25μM, relative to Control = 1, replicate 4). In addition, the “PDGFA mRNA expression” value in the test with PDGFA mRNA (P5-treated DP cells, n = 4) was “significantly increased”. In addition, the “Anagen induction score vs vehicle” value in the test with Adipoq−/− mice is on record as “significantly higher”. Moreover, in the test with Adipor1−/− mice, the “Histology / anagen induction score vs vehicle” value is given as “anagen HF was not found”. The “Hair shaft growth ex vivo” value with human scalp HFs was “significantly promoted hair shaft growth ex vivo”. In addition, the “p-AMPK in ORS cells of telogen HFs” value in test [1] is reported as “upregulation”.
